What all share (type): cell-based
One experiment has as its system Asbergillus niger ZM35. As to the kind of experiment: agar cup assay MIC. The conditions noted are these: Aspergillus niger. The text has this: (§1) In vitro investigations have shown a significant potency of the compounds of the invention against a large number of bacteria including gram-positive and gram-negative strains (Staphyiococci, Streptococci, Corynebacteriae, Mycobacteriae, Proteus, Propionibacterium, Pseudomonas, Neisseriae, E. coli) and fungal strains (Candida and Aspergillus). […] In addition, the studies of post-antibiotic effects point towards a strong bactericidal effect of the compounds of the invention. […] Minimum Inhibitory Concentrations were estimated using an agar cup assay. Bacterial strains were obtained from the American Type Culture Collection or from our own collection of clinical isolates. Colonies from fresh overnight culture were resuspended in saline water to 0.5 MacFarland corresponding to 10^8 CFU/ml. 200 ml Mueller Hinton agar (Oxoid) at 48° C. was inoculated at a concentration of 10^6 CFU/ml and poured into square petri dishes (245×245 mm). Holes were made in the inoculated plates and 200 μl of the compounds to be tested were disposed into each hole. A dilution series of compounds contained six dilution between 0.25 and 125 μg/ml. For Streptococci Mueller Hinton agar was supplemented with 5% sheep blood. Plates were appropriately incubated and zone diameters of growth inhibition were measured using an electronic caliper. MICs were estimated using a linear regression curve between the zone diameter of growth inhibition and the log2 of the sample concentration. The microbiological assay set up is in agreement with the European Pharmacopoeia 3rd edition (1997). The inhibition zones are function of the concentration of the compounds used. Known antibiotics including fusidic acid (FA), mupirocin and linezolid were used as reference compounds.

The next experiment relates to Candida albicans ZA. Description: agar cup assay MIC.
From the text: as §1

In experiment [1] the test system is Corynebacterium xerosis FF. As to the kind of experiment: agar cup assay MIC.
From the text: as §1

In a further experiment the test system is E. coli HA165. Description: agar cup assay MIC. The conditions noted are these: Escherichia coli.
From the text: as §1

Experiment [2] deals with Propionibacterium acnes FN33. Description: agar cup assay MIC. The settings on record: Cutibacterium acnes.
From the text: as §1

The test system of experiment [3] is Pseudomonas aeruginosa BA17. As to the kind of experiment: agar cup assay MIC.
From the text: as §1

The subject of a further experiment is S. aureus CJ200. As to the kind of experiment: agar cup assay MIC. The settings on record: Staphylococcus aureus.
From the text: as §1

For the next experiment, the system named is S. aureus CJ234F. Description: agar cup assay MIC. The conditions noted are these: Staphylococcus aureus; S. aureus CJ234F (MRSA, Fus. resistant).
From the text: as §1

Another experiment concerns S. aureus CJ234R. Description: agar cup assay MIC. The settings on record: Staphylococcus aureus; S. aureus CJ234R (MRSA, Rifampicin resistant).
From the text: as §1

A further experiment concerns S. aureus CJ247. Description: agar cup assay MIC. The conditions noted are these: Staphylococcus aureus.
From the text: as §1

The next experiment relates to S. aureus N6. Description: agar cup assay MIC. The settings on record: Staphylococcus aureus; S. aureus N6 (Fus. resistant).
From the text: as §1

The next experiment deals with S. epidermis CK5. Description: agar cup assay MIC. The settings on record: Staphylococcus epidermidis.
From the text: as §1

The subject of experiment [4] is Saccaromyces cervisiae ZZ7. As to the kind of experiment: agar cup assay MIC. The settings on record: Saccharomyces cerevisiae.
From the text: as §1

For experiment [5], the system named is Streptococcus faecium EI19. Description: agar cup assay MIC. The conditions noted are these: Enterococcus faecium; Streptococcus faecium EI19 (Penicillin resistant); agar with 5% sheep blood.
From the text: as §1

Experiment [6] concerns Streptococcus pyogenes EC88. As to the kind of experiment: agar cup assay MIC. The settings on record: agar with 5% sheep blood.
From the text: as §1

In another experiment the test system is S. aureus. Description: Minimum Bactericidal Concentration (MBC), broth culture and colony count. The settings on record: staphylococci, LB broth, aerobic; concentration twice that of MIC; FIG. 1. How it is done:
(§2) 10^6 bacteria were inoculated in 3 ml growth media (S. aureus—LB broth, S. pyogenes—TH broth) containing approximately 2×MIC, 1×MIC, 0.5×MIC and O×MIC respectively of compound 102 (MIC being relative to the strain being tested). S. aureus strains were grown aerobically, and S. pyogenes anaerobically in a carbon dioxide enriched incubator. Samples were diluted and plated on LA-plates (S. aureus) or blood-agar plates (S. pyogenes) followed by 24 hours incubation at 37° C. before being scored for colonies.

Another experiment relates to S. pyogenes. The experiment is described as above. The settings on record: streptococci, TH broth, anaerobic; concentration twice that of MIC; FIG. 2. Here is the method:
as §2

≈ marks a conversion by molar mass, not a printed value. A value given as a limit tells only on which side of the number the result lay.

As usually defined, the MIC is the lowest concentration found to suppress growth. Consider `CC(=O)O[C@H]1C[C@@]2(C)C(CCC3[C@@]4(C)CC[C@@H](O)[C@@H](C)C4CC[C@@]32C)[C@@H]1[C@H](CCCC(C)C)C(=O)NCCN(CCN)CCN` (stereo partly drawn) [Compound 102, 21-N-{2′-[bis(2′-aminoethyl)amino]ethyl}-11-desoxy-17R,20S,24,25-tetrahydrofusid-21-amide], for which the MIC was 4 µg/mL (≈ 6.32 µM) with Asbergillus niger ZM35; 4 µg/mL (≈ 6.32 µM) with Candida albicans ZA; 4 µg/mL (≈ 6.32 µM) in [1]; 16 µg/mL (≈ 25.3 µM) in the experiment on E. coli HA165; 4 µg/mL (≈ 6.32 µM) in experiment [2]; 16 µg/mL (≈ 25.3 µM) in experiment [3]. Further, the MIC against S. aureus CJ200, against S. aureus CJ234F, against S. aureus CJ234R, in the experiment with S. aureus CJ247, with S. aureus N6 and in the experiment on S. epidermis CK5 was 4 µg/mL (≈ 6.32 µM) each time. Also, the MIC in experiment [4], in experiment [5] and in experiment [6] was 16 µg/mL (≈ 25.3 µM) throughout. In addition, the “bactericidal impact (MBC)” value in the experiment with S. aureus and in the experiment with S. pyogenes was “strong bacterial killing” throughout.

Turning to `CC(C)CCCC(C(=O)NCCN(CCN)CCN)[C@@H]1CC[C@@]2(C)C1C[C@@H](O)C1[C@@]3(C)CC[C@@H](O)[C@@H](C)C3CC[C@@]12C` (stereo partly drawn) [Compound 103, 21-N-{2′-[bis(2′-aminoethyl)amino]ethyl}-16-desacetoxy-17R,20S,24,25-tetrahydrofusid-21-amide], the MIC in the experiment with Asbergillus niger ZM35 is greater than 125 µg/mL; in the experiment with Candida albicans ZA it was 1 µg/mL (≈ 1.69 µM); in experiment [1], 1 µg/mL (≈ 1.69 µM); in the experiment on E. coli HA165, 4 µg/mL (≈ 6.77 µM); in [2], 1 µg/mL (≈ 1.69 µM); in experiment [3], 16 µg/mL (≈ 27.1 µM). The MIC with S. aureus CJ200, against S. aureus CJ234F, in the experiment with S. aureus CJ234R, against S. aureus CJ247, with S. aureus N6 and with S. epidermis CK5 was 1 µg/mL (≈ 1.69 µM) in each case. Further, the values for the MIC in experiment [4], in experiment [5] and in [6] were 4 µg/mL (≈ 6.77 µM), 16 µg/mL (≈ 27.1 µM) and 4 µg/mL (≈ 6.77 µM), respectively.

With `CC(C)CCCC(C(=O)NCCN(CCN)CCN)C1=C2C[C@@H](O)C3[C@@]4(C)CC[C@@H](O)[C@@H](C)C4CC[C@]3(C)[C@@]2(C)CC1` (some centres unmarked) [Compound 104, 21-N-{2′-[bis(2′-aminoethyl)amino]ethyl}-13(17)-en-17,20,24,25-tetrahydrofusidan-21-carboxamide], the MIC in the experiment on Asbergillus niger ZM35 is greater than 64 µg/mL; in the experiment with Candida albicans ZA, 16 µg/mL (≈ 27.2 µM); in [1], 16 µg/mL (≈ 27.2 µM); against E. coli HA165, greater than 64 µg/mL; in experiment [2] it was 16 µg/mL (≈ 27.2 µM); in experiment [3], greater than 64 µg/mL. Further, the MIC against S. aureus CJ200, in the experiment with S. aureus CJ234F, in the experiment on S. aureus CJ234R, with S. aureus CJ247, against S. aureus N6 and in the experiment on S. epidermis CK5 was 16 µg/mL (≈ 27.2 µM) each time. Further, the MIC in [4] was 16 µg/mL (≈ 27.2 µM); in [5], greater than 64 µg/mL; in experiment [6] it was 16 µg/mL (≈ 27.2 µM).

With `CC(=O)O[C@H]1C[C@@]2(C)C(C[C@@H](O)C3[C@@]4(C)CC[C@H](O)[C@@H](C)C4CC[C@@]32C)[C@@H]1[C@H](CCCC(C)C)C(=O)NCCN(CCN)CCN` (some centres unmarked) [Compound 105], the MIC with Asbergillus niger ZM35 amounted to 64 µg/mL (≈ 98.6 µM); against Candida albicans ZA it was 16 µg/mL (≈ 24.7 µM); in experiment [1], 16 µg/mL (≈ 24.7 µM); against E. coli HA165, 64 µg/mL (≈ 98.6 µM); in [2], 16 µg/mL (≈ 24.7 µM); in [3], 16 µg/mL (≈ 24.7 µM). The MIC in the experiment on S. aureus CJ200, against S. aureus CJ234F, in the experiment on S. aureus CJ234R, with S. aureus CJ247, with S. aureus N6 and against S. epidermis CK5 was 16 µg/mL (≈ 24.7 µM) in each case. For the same compound, the MIC in [4], in experiment [5] and in [6] was 64 µg/mL (≈ 98.6 µM) each time.

In the case of `C[C@H](CCC(=O)NCCN(CCN)CCN)[C@H]1CC[C@H]2[C@@H]3CC[C@@H]4C[C@H](O)CC[C@]4(C)[C@H]3[C@H](O)C[C@]12C` [Compound 107], the MIC (against Asbergillus niger ZM35; with Candida albicans ZA; in experiment [1]; against E. coli HA165; in [2]; in experiment [3]) was 16 µg/mL (≈ 30.7 µM) throughout. Moreover, the MIC against S. aureus CJ200, in the experiment on S. aureus CJ234F, in the experiment with S. aureus CJ234R, in the experiment on S. aureus CJ247, with S. aureus N6 and against S. epidermis CK5 was 16 µg/mL (≈ 30.7 µM) in each case. The MIC in experiment [4] turned out to be 4 µg/mL (≈ 7.68 µM); in experiment [5], 16 µg/mL (≈ 30.7 µM); in [6], 16 µg/mL (≈ 30.7 µM).

The record behind these values is patent US20050256093A1, “Branched polyamine steroid derivatives” (Leo Pharma, priority 2002, published 2005).
